Source: US12173039B1, “TPL2 inhibiting agents, uses thereof, and detection of TPL2” (Washington University, priority 2021, dated 2024)

Tests used:
KP2 cells = assay: Anchorage independent soft agar growth assay, KP2 cells; assay type: cell-based, murine
Method: (§1) Cells were seeded at 5000-15000 cells in 0.3% noble agar-DMEM suspension per well, in triplicate, in 24 well plate. For drug treatment, compound was added to cell suspension at 1× concentration. Seeded cells were fed with fresh 0.6% agar-DMEM mix once every 7-12 days. […] After 3-6 weeks, colonies were counted under microscope and imaged. Colony count was normalized to control and graphed in GraphPad Prism v7/8.

[1] = test system: HPNE-KRAS^G12D cells, HEKT/tH-KRAS^G12V cells, conventional PDAC lines, and PDCLs; assay: Anchorage independent soft agar growth assay, human KRAS-mutant lines; assay type: cell-based
Method: as §1

p-MEK, p-ERK, and p-RSK = assay: Immunoblots of MAPK pathway markers in human cell lines; assay type: cell-based
Method: (§2) Standard immunoblotting procedure was followed. Cells were washed twice with ice-cold 1×PBS and lysed with ice-cold triton-X lysis buffer (25 mM Tris, pH 7.4, 150 mM NaCl, 5 mM EDTA, 1% Triton-X) containing 1× protease (10 μg mL-1 leupeptin, 700 ng mL-1 pepstatin, 170 ng mL-1 aprotinin, 1 mM PMSF) and phosphatase (10 mM NaF, 1 mM Na3VO4, 1 mM Na4P2O^7, 5 mM Na b-glycerophosphate) inhibitors. Lysates were quantified by Bradford assay (Thermo Scientific), normalized for concentration, and reduced and denatured with 6×SDS sample buffer followed by boiling for 5 minutes. 20-40 μg of protein per sample was resolved by SDS-PAGE, blotted on PVDF membrane and probed with primary antibodies (Cell Signaling Technologies: p-ERK1/2 (#4370), p-MEK1/2 (#9154), ERK1/2 (#4695), MEK1/2 (#8727), p-p105 (#4806), NFS2KB1 p105/p50 (#3035), p-IRAK4 (#11927), IRAK4 (#4363), ubiquitin (#43124), anti-HA (#3724), p-p90RSK (#11989), RSK1/2/3 (#9355), p-TPL2 (#4491), PARP (#9532), p-B-RAF S445 (#2696), BRAF (#9433S). Santa Cruz Biotechnology: GAPDH (#sc-32233), p-p65 S536 (#sc101752). Thermo Fisher Scientific: p-55 TPL2 (#PA5-36635). EMD Millipore: IRAK4 (#07-418). R&D systems: TPL2/MAP3K8 (#MAB4586). Novus Biologicals: anti-AU1 (#NB600-453). Abcam: p-p65 S276 (#ab194726)). Membranes were incubated with appropriate HRP-conjugated secondary antibodies (anti-mouse or anti-rabbit, (1:5000 dilution), Jackson Laboratory) and imaged using chemiluminescent substrate. Additional steps for immunoprecipitation include incubation of soluble fraction lysate with anti-HA magnetic beads (Thermo Scientific cat #88837) overnight at 4° C., washing, and elution using 1×SDS sample buffer and boiling as mentioned in manufacturer's protocol.

p-p105, p-p65 = assay: Immunoblots of NF-κB markers in PDAC cells; assay type: cell-based, human; details: Pa01C, Pa02C, Pa03C, and HPAC cells; IRAK4 inhibition
Method: as §2

NF-κB reporter activity = assay: NF-κB luciferase reporter assay; assay type: cell-based, human; details: KRAS-mutant PDAC cells (PANC-1); serial dilutions from 20 μM; 18 hours
Method: Cells stably expressing plasmid encoding serum-response-element (SRE) or NFKB promoter driven Firefly luciferase and constitutive Renilla luciferase were seeded at equal density per well and treatment was initiated the next day for 16-24 duration. Alternatively, 293T reporter cells were transfected in duplicate or triplicate with 1 μg of appropriate plasmid DNA. Medium was replaced 16-18 hours later and at 48 hours post-transfection reporter activity was measured using Dual-Glo® Luciferase Assay System. Data was acquired using SpectraMax i3Microplate Reader and analysis was performed by calculating ratio of firefly:renilla. Values were normalized to control and graphed using GraphPad Prism v7/8 software.

KRAS-mutant PDAC lines = assay: Drug response and viability assay (AlamarBlue), PDAC lines; assay type: cell-based, human; details: various KRAS-mutant PDAC lines; 5 and 7 days
Method: Cells were seeded at 1500-2500 cells per well in triplicates, in 96 well format. Next day, appropriate inhibitor was added in serial dilution from 1.00×102 μM or indicated single doses. Vehicle (DMSO) was added to match volume of inhibitor used for highest concentration. […] Fluorescence at 585 nm (excitation 555 nm) was measured by SpectraMax i3 Microplate Reader. Raw values were normalized to vehicle, analyzed and graphed using GraphPad Prism v7/8 software.

SMILES: CC[C@@H]1[C@H](F)C(=O)N[C@@H]1COc1nccc2cc(C(N)=O)c(OC)cc12 [PF06650833, 1-(((2S,3S,4S)-3-ethyl-4-fluoro-5-oxopyrrolidin-2-yl)methoxy)-7-methoxyisoquinoline-6-carboxamide]
- AI growth in soft agar (KP2 cells): dose-dependently suppressed
- AI growth ([1]; HPNE-KRAS^G12D cells): crippled the AI growth
- AI growth enhanced by IRAK4 overexpression ([1]; HPNE-KRAS^G12D cells ectopically expressing IRAK4): reversed the effect of IRAK4 overexpression
- p-MEK and p-ERK (p-MEK, p-ERK, and p-RSK; 293T cells transfected with oncogenic BRAF^V600E, 24 hours): neither TPL2i nor IRAK4i suppressed
- p-MEK and p-ERK / MAPK activity (p-MEK, p-ERK, and p-RSK; BxPc-3 PDAC line (BRAF mutation, WT KRAS)): neither TPL2i nor IRAK4i suppressed
- KRAS mutant-upregulated p-MEK, p-ERK, and p-RSK levels (p-MEK, p-ERK, and p-RSK; HPNE-KRAS^G12D and 293T-KRAS^G12V, 24 hours, serum-free): dose-dependently blocked
- p-MEK and p-ERK levels enhanced by ectopic TPL2 (p-MEK, p-ERK, and p-RSK; Pa01C and HPAC cells overexpressing TPL2, serum-free): blocked
- MAPK activity (immunoblot) (p-MEK, p-ERK, and p-RSK; Pa01C, Pa02C, Pa03C and HPAC, 16 hours): dose-dependently suppressed
- p-p105 levels (p-p105, p-p65): suppresses
- NF-κB reporter activity (NF-κB reporter activity): dose-dependently suppressed
- viability (KRAS-mutant PDAC lines): dose-dependently reduced
